By MIC is commonly meant the smallest concentration in the dilution series that meets the test's criterion for growth inhibition.

≈ marks a conversion by molar mass, not a printed value.

Assay [1] has as its system P. aeruginosa overproducing chromosomally-mediated class C β-lactamase. Nature of the assay: MIC of third-generation cephalosporins alone and with compounds 4 or 9 (Table 3). The following applies: antibiotic alone. It counts as cell-based, Pseudomonas aeruginosa. The text has this: (§1) Antimicrobial activity was investigated quantitatively to determine the minimum inhibitory concentrations (MICs) of the β-lactam/inhibitor combination necessary to inhibit the bacterial growth (Table 3). The MICs of β-lactams alone against the strains corresponded to a high level of resistance according to Clinical and Laboratory Standards Institute (CLSI) standards. (Clinical and Laboratory Standards Institute, Performance standards for antimicrobial susceptibility testing, 20th Informational Supplement, M100-S20 2010) The compounds had no measurable antibiotic activity when used alone.
(§2) Susceptibility testing was performed and interpreted following the guidelines of CLSI. (Clinical and Laboratory Standards Institute, Performance standards for antimicrobial susceptibility testing, 20th Informational Supplement, M100-S20 2010) The compounds were dissolved in 50% DMSO, and dilutions were performed using Muller-Hinton medium. An adequate final concentration was obtained to determine the minimum inhibitory concentrations (MICs). The concentration of DMSO was maintained below 5%. The inhibitors were tested for synergy with the third-generation β-lactams ceftazidime and cefotaxime against several clinical bacteria. […] Each value reported reflects the average of three independent experiments. […] A Klebsiella pneumoniae isolate produced the inducible plasmid-mediated class C enzyme DHA-1. The Friedman's test and the Wilcoxon signed rank test were used to compare MIC values. Statistical significance was established at p<0.05.

Assay [2] has as its system K. pneumoniae producing the plasmid-mediated class C β-lactamase DHA-1. Described as above. The class given is cell-based, Klebsiella pneumoniae. The settings on record: antibiotic alone.
Source text: as §1, §2

In assay [3] the test system is E. coli overproducing chromosomally-mediated class C β-lactamase. Described as above. The class given is cell-based, Escherichia coli. The following applies: antibiotic alone.
Source text: as §1, §2

Assay [4] relates to E. cloacae, AmpC-overproducing. The assay is described as follows: MIC of third-generation cephalosporins alone and with compounds (Table 6). It counts as cell-based, Enterobacter cloacae. The settings on record: antibiotic alone. How it is done: (§3) The anti-resistance activity of inhibitors was investigated by the determination of the minimum inhibitory concentrations (MICs) of the β-lactam/inhibitor combination necessary to inhibit the growth of clinically-isolated bacteria resistant to third-generation cephalosporins via expression of class A or class C β-lactamases (Table 6).
(§4) Susceptibility testing was performed and interpreted following the guidelines of CLSI. (Clinical and Laboratory Standards Institute, Performance standards for antimicrobial susceptibility testing, 20th Informational Supplement, M100-S20 2010) The compounds were dissolved in 50% DMSO, and dilutions were performed using Muller-Hinton medium. An adequate final concentration was obtained to determine the minimum inhibitory concentrations (MICs). The concentration of DMSO was maintained below 5%. The inhibitors were tested for synergy with the third-generation β-lactams ceftazidime and cefotaxime against several clinical bacteria. The ratio of β-lactams to inhibitors was 1:4. Each value reported reflects the average of three independent experiments. […] The Friedman's test and the Wilcoxon signed rank test were used to compare MIC values. Statistical significance was established at p<0.05.
(§5) Table 6. MICs (μg/ml) of third-generation cephalosporins alone and in association with the compounds (ratio 1/4) for clinical bacteria. CTX, cefotaxime and CAZ, ceftazidime. ^1, AmpC-overproducing bacteria; ^2, CTX-M-14-producing E. coli; ^3, KPC-2-producing K. pneumoniae; ^4, OXA-48-producing K. pneumoniae; ^5, NDM-1-producing C. freundii.

In assay [5] the test system is P. aeruginosa, AmpC-overproducing. The assay is described as above. The following applies: antibiotic alone. The class given is cell-based, Pseudomonas aeruginosa. How it is done: as §3, §4
Table 6. MICs (μg/ml) of third-generation cephalosporins alone and in association with the compounds (ratio 1/4) for clinical bacteria. […]

For assay [6], the system named is K. pneumoniae, AmpC-overproducing. The assay is described as above. The class given is cell-based, Klebsiella pneumoniae. The settings on record: antibiotic alone. The procedure:
as §3, §4, §5

Assay [7] relates to OXA-48-producing K. pneumoniae. The description is as above. It counts as cell-based, Klebsiella pneumoniae. The following applies: antibiotic alone. The procedure:
as §3, §4, §5

Assay [8] relates to CTX-M-14-producing E. coli. The description is as above. It counts as cell-based, Escherichia coli. The following applies: antibiotic alone. How it is done:
as §3, §4, §5

Assay [9] concerns E. coli 142, AmpC-overproducing. Described as above. It counts as cell-based, Escherichia coli. The settings on record: antibiotic alone. How it is done:
as §3, §4, §5

Assay [10] has as its system E. coli 144, AmpC-overproducing. The description is as above. It counts as cell-based, Escherichia coli. The settings on record: antibiotic alone. The procedure: as §3, §4, §5
For assay [11], the system named is E. coli 145, AmpC-overproducing. The assay is described as above. The following applies: antibiotic alone. The class given is cell-based, Escherichia coli. How it is done:
as §3, §4, §5

The subject of assay [12] is E. coli 146, AmpC-overproducing. Described as above. It counts as cell-based, Escherichia coli. The following applies: antibiotic alone. How it is done: as §3, §4, §5
In assay [13] the test system is E. coli R1, AmpC-overproducing. The description is as above. It counts as cell-based, Escherichia coli. The settings on record: antibiotic alone. The procedure:
as §3, §4, §5

The subject of assay [14] is E. coli, AmpC-overproducing. The assay is described as above. It counts as cell-based, Escherichia coli. The settings on record: antibiotic alone. How it is done: as §3, §4, §5
The subject of assay [15] is hospital-derived strain of E. coli that overproduces AmpC. Nature of the assay: MIC for the strain used in the mouse model. The settings on record: Escherichia coli. It counts as cell-based.

Regarding `CO/N=C(\C(=O)N[C@@H]1C(=O)N2C(C(=O)O)=C(COC(C)=O)CS[C@H]12)c1csc(N)n1` [Cefotaxime], the “MIC, cephalosporin alone” value in assay [1] was more than 128 µg/mL; in assay [2], 8 µg/mL; in assay [3], 8 µg/mL; in assay [4] it was 64 µg/mL; in assay [5] it was more than 128 µg/mL; in [6], 8 µg/mL. Further, the “MIC, cephalosporin alone” value in assay [7] stood at 256 µg/mL; in assay [8] it was 256 µg/mL; in [9] it was 4 µg/mL; in assay [10] it was 16 µg/mL; in assay [11], 16 µg/mL; in assay [12], 8 µg/mL. In addition, the “MIC, cephalosporin alone” value in assay [13] came out at 4 µg/mL; in assay [14] it was 8 µg/mL. In assay [15], this molecule came in with an MIC of 32 µg/mL (≈ 70.3 µM).

The values are drawn from US9371337B2, “β-lactamase inhibitors” (The Regents of the University of California, priority 2011, dated 2016).
